# Laboratory results from PubChem BioAssay (NCI).
# “And” between values parts separate entries of the source, which are not always exact repeats. Identical values can stand only once.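 Protocol summary: plate cells (96-well), add compound at 5 concentrations, incubate 48 h, interpolate endpoints linearly. GI50 = concentration required for 50% inhibition of growth. Definition used: TGI = concentration required for complete inhibition of growth.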
# Tests used:
# Assay in all cases: NCI anticancer screen, dose series, 48 h
# HOP-92 NSCLC = test system: HOP-92 NSCLC
# HS 578T breast = test system: HS 578T breast
# IGROV1 ovarian = test system: IGROV1 ovarian
# LOX IMVI melanoma = test system: LOX IMVI melanoma
# MDA-MB-231 breast = test system: MDA-MB-231 breast
# PC-3 prostate = test system: PC-3 prostate
# SK-MEL-2 melanoma = test system: SK-MEL-2 melanoma
# SNB-75 CNS = test system: SNB-75 CNS
# UACC-62 melanoma = test system: UACC-62 melanoma
# MOLT-4 leukemia = test system: MOLT-4 leukemia
SMILES,TGI (HOP-92 NSCLC),TGI (HS 578T breast),TGI (IGROV1 ovarian),TGI (LOX IMVI melanoma),TGI (MDA-MB-231 breast),TGI (PC-3 prostate),TGI (SK-MEL-2 melanoma),TGI (SNB-75 CNS),TGI (UACC-62 melanoma),TGI (MOLT-4 leukemia),GI50 (HOP-92 NSCLC),GI50 (UACC-62 melanoma)
CC1OC(OC2C(O[C@H]3CC[C@@]4(C)C(=CC[C@H]5[C@@H]6C[C@@H]7O[C@]8(CC[C@@H](CO)CO8)[C@@H](C)[C@@H]7[C@@]6(C)CC[C@@H]54)C3)OC(CO)C(O)C2OC2OC(CO)C(O)C(O)C2O)C(O)C(O)C1O (stereo partly specified),3.32 µM,8.06 µM,4.05 µM,3.39 µM,3.25 µM,3.33 µM,3.7 µM,3.06 µM,3.23 µM,,,
O=C(NNC(=S)Nc1cccc(Cl)c1)c1cc(-c2ccccc2)nc2ccccc12,30.2 µM,41.9 µM,47 µM,,33.2 µM,29.3 µM,27.7 µM,66.5 µM,26.7 µM,74.6 µM,,
Cc1cccc(N=NC(=O)NNc2cccc(C)c2C)c1C,,,> 100 µM,60.2 µM,> 100 µM,> 100 µM,46.7 µM,> 100 µM,> 100 µM,,,
O=C1/C(=C/c2ccc([N+](=O)[O-])cc2)C(=O)N(c2ccccc2)C1c1ccccc1 (stereo unspecified),,> 10 µM,> 10 µM,> 10 µM,> 10 µM,> 10 µM,> 10 µM,> 10 µM,> 10 µM,> 10 µM,,
O=C(NI1OC(=O)c2ccccc21)c1ccc(Cl)cc1,> 100 µM,,> 100 µM,> 100 µM,> 100 µM,> 100 µM,> 100 µM,> 100 µM,> 100 µM,,,
O=Cc1c(C(=O)O)[nH]c(=O)[nH]c1=O,,> 100 µM,> 100 µM,> 100 µM,> 100 µM,> 100 µM,> 100 µM,> 100 µM,> 100 µM,> 100 µM,,
COc1cc(/C=C(\C#N)C(N)=O)cc(Br)c1O,93.3 µM and > 100 µM,,> 100 µM,59.2 µM and > 100 µM,,,> 100 µM,14.4 µM and > 100 µM,> 100 µM,> 100 µM,21.8 µM and > 100 µM,35.9 µM and > 100 µM
CC1=NNC(N)=N/C1=C\C(Sc1ccc(Cl)cc1)c1ccc([N+](=O)[O-])cc1 (stereo unspecified),> 100 µM,> 100 µM,> 100 µM,> 100 µM,> 100 µM,> 100 µM,> 100 µM,,> 100 µM,> 100 µM,,
CCN(CC)CCNc1nc2ccc([N+](=O)[O-])cc2[n+]([O-])n1,> 100 µM,,38.3 µM,,33.1 µM,75.3 µM,35.3 µM,> 100 µM,35 µM,50.6 µM,,
COc1cc(/C=C2\C(=O)N(c3ccccc3)C(c3ccccc3)S2(=O)=O)cc(OC)c1OC (stereo unspecified),> 100 µM,> 100 µM,,> 100 µM,> 100 µM,,> 100 µM,,> 100 µM,> 100 µM,,
Cn1c2c(c3ccccc31)CC1c3c(c4ccccc4n3C)CC21 (stereo unspecified),> 100 µM,> 100 µM,> 100 µM,> 100 µM,> 100 µM,> 100 µM,,> 100 µM,> 100 µM,> 100 µM,,
O=C(N/N=C/c1ccccc1)c1c(-c2cccnc2)cnc2ccccc12,> 100 µM,,> 100 µM,,,> 100 µM,> 100 µM,> 100 µM,> 100 µM,> 100 µM,,
COC1C=CC(O)C(CO)O1 (stereo unspecified),> 100 µM,,> 100 µM,> 100 µM,,,> 100 µM,> 100 µM,> 100 µM,> 100 µM,,
OCC(O)COCn1nncc1Cn1ncc2c(SCc3ccccc3)ncnc21 (stereo unspecified),,25.7 µM,> 100 µM,> 100 µM,> 100 µM,> 100 µM,> 100 µM,,> 100 µM,,,
Oc1ccc(-c2nc(-c3cccnc3)c(-c3ccc(Cl)cc3)[nH]2)cc1,,56 µM,23 µM,24 µM,35.1 µM,19.5 µM,32.8 µM,19.9 µM,25.9 µM,18.1 µM,,
COCN(CCC1=CCCCC1)C(=O)OC,> 100 µM,> 100 µM,> 100 µM,,> 100 µM,> 100 µM,> 100 µM,> 100 µM,> 100 µM,> 100 µM,,
Cc1ccc(N=Nc2c(O)ccc3cc(S(=O)(=O)O)cc(S(=O)(=O)O)c23)cc1,> 100 µM,> 100 µM,> 100 µM,,> 100 µM,> 100 µM,> 100 µM,> 100 µM,> 100 µM,> 100 µM,,
COc1cc(Cn2c3c(c4cc(O)ccc42)Cc2ccccc2C3=O)cc(OC)c1,,> 100 µM,> 100 µM,> 100 µM,> 100 µM,> 100 µM,> 100 µM,58.5 µM,> 100 µM,> 100 µM,,
O=C(O)Cc1cccc2c(=O)c3ccccc3oc12,> 100 µM,> 100 µM,> 100 µM,> 100 µM,> 100 µM,> 100 µM,56.5 µM,,77.2 µM,> 100 µM,,
COC[C@@H](C[C@H]1O[C@@](O)([C@H](O)[C@@H]2C[C@H](OC)[C@@H](O)CC/C=C(C)/C=C/[C@@H](O[C@@H]3O[C@@H](C)[C@H](OC)[C@@H](O)[C@@H]3O)[C@H](C)/C=C(C)/C=C(C)/C=C(\C)C(=O)O2)[C@H](C)[C@@H](O)[C@H]1C)O[C@H]1C[C@](C)(O)[C@@H](O[C@H]2C[C@@H](OC)[C@H](O)[C@@H](C)O2)C(C)O1 (stereo partly specified),> 100 µM,> 100 µM,> 100 µM,> 100 µM,> 100 µM,> 100 µM,> 100 µM,,> 100 µM,> 64.3 µM,,
O=Cc1ccc2c(c1)CC1(Cc3ccccc3C1)C2,32.9 µM,> 100 µM,46.1 µM,37.9 µM,30.4 µM,59.6 µM,27.1 µM,,41.4 µM,42.9 µM,,
NN/C(=N\S(=O)(=O)c1cc2ccccc2s1)Nc1ccc(Cl)cc1,39.6 µM,,36.4 µM,38.6 µM,40.4 µM,62.4 µM,34.5 µM,38.7 µM,35.5 µM,68 µM,,
